In PubChem BioAssay AID204 (DTP/NCI, 2004):
Several values for one entry are separate records, joined by “and”; a condition that tells them apart may be missing. Identical values can stand only once. Inconclusive results and toxic doses are left out.

Tested on: BDF1 mice, P288 methotrexate-resistant leukemia, survival T/C
Test: NCI In Vivo Anticancer Drug Screen. Data for tumor model P288 Lymphocytic Leukemia resistant to methotrexate; NSC 740 (intraperitoneal) in B6D2F1 (BDF1) mice
Settings: endpoint: median survival time, higher = longer survival
Description: The antitumor activity of compounds was measured in mice bearing transplantable tumors. Survival or tumor size were measured and the results are expressed as the measurement made in the treated group (T) divided by the measurement made in the vehicle treated control group (C). The tumor model used in this assay is P288 Lymphocytic Leukemia resistant to methotrexate; NSC 740 (intraperitoneal) in B6D2F1 (BDF1) mice

[1] = dose: 1.5 mg/kg/injection, schedule: Q01DX010 (ip), vehicle: saline
[2] = dose: 6.0 mg/kg/injection, schedule: Q01DX010 (ip), vehicle: saline
[3] = dose: 12.0 mg/kg/injection, schedule: Q01DX010 (ip), vehicle: saline
[4] = dose: 62.5 mg/kg/injection, schedule: Q01DX010 (ip), vehicle: saline
[5] = dose: 125.0 mg/kg/injection, schedule: Q01DX010 (ip), vehicle: saline
[6] = dose: 2.0 mg/kg/injection, schedule: Q01DX010 (ip), vehicle: saline
[7] = dose: 4.0 mg/kg/injection, schedule: Q01DX010 (ip), vehicle: saline
[8] = dose: 8.0 mg/kg/injection, schedule: Q01DX010 (ip), vehicle: saline
[9] = dose: 16.0 mg/kg/injection, schedule: Q01DX010 (ip), vehicle: saline
[10] = dose: 200.0 mg/kg/injection, schedule: Q01DX010 (ip), vehicle: saline
[11] = dose: 5.0 mg/kg/injection, schedule: Q01DX010 (ip), vehicle: saline
[12] = dose: 10.0 mg/kg/injection, schedule: Q01DX010 (ip), vehicle: saline
[13] = dose: 20.0 mg/kg/injection, schedule: Q01DX010 (ip), vehicle: saline
[14] = dose: 40.0 mg/kg/injection, schedule: Q01DX010 (ip), vehicle: saline
[15] = dose: 12.5 mg/kg/injection, schedule: Q01DX010 (sc), vehicle: steriod suspending solution
[16] = dose: 25.0 mg/kg/injection, schedule: Q01DX010 (sc), vehicle: steriod suspending solution
[17] = dose: 50.0 mg/kg/injection, schedule: Q01DX010 (sc), vehicle: steriod suspending solution
[18] = dose: 100.0 mg/kg/injection, schedule: Q01DX010 (sc), vehicle: steriod suspending solution
[19] = dose: 15.0 mg/kg/injection, schedule: Q01DX010 (ip), vehicle: saline
[20] = dose: 30.0 mg/kg/injection, schedule: Q01DX010 (ip), vehicle: saline
[21] = dose: 60.0 mg/kg/injection, schedule: Q01DX010 (ip), vehicle: saline
[22] = dose: 25.0 mg/kg/injection, schedule: Q01DX010 (ip), vehicle: saline
[23] = dose: 6.25 mg/kg/injection, schedule: Q01DX010 (ip), vehicle: saline
[24] = dose: 12.5 mg/kg/injection, schedule: Q01DX010 (ip), vehicle: saline

## Clc1ccc(C(c2ccccc2Cl)C(Cl)Cl)cc1 (configuration not stated)
dose: 62.5 mg/kg/injection, schedule: Q01DX010 (sc), vehicle: steriod suspending solution
  T/C: 109 % of control
dose: 125.0 mg/kg/injection, schedule: Q01DX010 (sc), vehicle: steriod suspending solution
  T/C: 100 % of control
dose: 250.0 mg/kg/injection, schedule: Q01DX010 (sc), vehicle: steriod suspending solution
  T/C: 109 % of control
dose: 500.0 mg/kg/injection, schedule: Q01DX010 (sc), vehicle: steriod suspending solution
  T/C: 100 % of control

## Nc1ncnc2[nH]ncc12
[1]
  T/C: 100 % of control
dose: 3.0 mg/kg/injection, schedule: Q01DX010 (ip), vehicle: saline
  T/C: 95 % of control and 100 % of control
[2]
  T/C: 100 % of control and 105 % of control
[3]
  T/C: 90 % of control and 110 % of control

## CCCSc1ncnc2nc[nH]c12
dose: 15.6 mg/kg/injection, schedule: Q01DX010 (ip), vehicle: saline
  T/C: 104 % of control
dose: 31.3 mg/kg/injection, schedule: Q01DX010 (ip), vehicle: saline
  T/C: 90 % of control and 100 % of control
[4]
  T/C: 90 % of control and 104 % of control
[5]
  T/C: 90 % of control

## Nc1nc(=S)c2ncn(C3OC(CO)C(O)C3O)c2[nH]1 (configuration not stated)
[6]
  T/C: 90 % of control and 91 % of control and 115 % of control
[7]
  T/C: 91 % of control and 96 % of control and 120 % of control
[8]
  T/C: 93 % of control
[9]
  T/C: 90 % of control (2×) and 91 % of control

## NC(=O)N(CCCl)N=O
dose: 0.5 mg/kg/injection, schedule: Q01DX010 (ip), vehicle: saline
  T/C: 210 % of control and 213 % of control
dose: 1.0 mg/kg/injection, schedule: Q01DX010 (ip), vehicle: saline
  T/C: 300 % of control
[6]
  T/C: 168 % of control and 300 % of control
[7]
  T/C: 90 % of control

## CC(CCC(C)OS(C)(=O)=O)OS(C)(=O)=O (configuration not stated)
[7]
  T/C: 95 % of control
[8]
  T/C: 87 % of control and 95 % of control
[9]
  T/C: 95 % of control and 100 % of control

## Nc1nc(N)c2nc(CNc3ccc(C(=O)NC(CCC(=O)O)C(=O)O)cc3)cnc2n1 (configuration not stated)
dose: 0.03 mg/kg/injection, schedule: Q01DX010 (ip), vehicle: other
  T/C: 90 % of control and 111 % of control
dose: 0.05 mg/kg/injection, schedule: Q01DX010 (ip), vehicle: other
  T/C: 100 % of control
dose: 0.1 mg/kg/injection, schedule: Q01DX010 (ip), vehicle: other
  T/C: 100 % of control
dose: 0.2 mg/kg/injection, schedule: Q01DX010 (ip), vehicle: other
  T/C: 110 % of control and 111 % of control

## CS(=O)(=O)OCC(O)C(O)COS(C)(=O)=O (configuration not stated)
[10]
  T/C: 86 % of control
dose: 400.0 mg/kg/injection, schedule: Q01DX010 (ip), vehicle: saline
  T/C: 93 % of control
dose: 800.0 mg/kg/injection, schedule: Q01DX010 (ip), vehicle: saline
  T/C: 100 % of control

## C[C@@H]1C[C@@H]([C@H](O)CC2CC(=O)NC(=O)C2)C(=O)[C@@H](C)C1
[11]
  T/C: 93 % of control and 94 % of control
[12]
  T/C: 88 % of control and 100 % of control
[13]
  T/C: 100 % of control
[14]
  T/C: 111 % of control

## CC/C(=C(/CC)c1ccc(O)cc1)c1ccc(O)cc1
[15]
  T/C: 100 % of control and 110 % of control
[16]
  T/C: 105 % of control
[17]
  T/C: 100 % of control and 105 % of control
[18]
  T/C: 90 % of control and 100 % of control

## CN(C)CC(=O)c1ccc(O)c(O)c1
[10]
  T/C: 110 % of control and 113 % of control
dose: 300.0 mg/kg/injection, schedule: Q01DX010 (ip), vehicle: saline
  T/C: 120 % of control and 122 % of control
dose: 450.0 mg/kg/injection, schedule: Q01DX010 (ip), vehicle: saline
  T/C: 115 % of control and 118 % of control
dose: 675.0 mg/kg/injection, schedule: Q01DX010 (ip), vehicle: saline
  T/C: 122 % of control

## S=P(N1CC1)(N1CC1)N1CC1
dose: 0.75 mg/kg/injection, schedule: Q01DX010 (ip), vehicle: saline
  T/C: 100 % of control and 111 % of control
[1]
  T/C: 111 % of control
[2]
  T/C: 116 % of control and 120 % of control

## O=C(Nc1ccc(C2=NCCN2)cc1)c1ccc(C(=O)Nc2ccc(C3=NCCN3)cc2)c([N+](=O)[O-])c1
[2]
  T/C: 150 % of control
[8]
  T/C: 160 % of control and 172 % of control
[3]
  T/C: 238 % of control and 285 % of control
dose: 18.0 mg/kg/injection, schedule: Q01DX010 (ip), vehicle: saline
  T/C: 161 % of control and 165 % of control

## CC(=O)O[C@]1(C(C)=O)CC[C@H]2[C@@H]3C[C@H](C)C4=CC(=O)C=C[C@]4(C)[C@@]3(F)[C@@H](O)C[C@@]21C
[15]
  T/C: 100 % of control
[16]
  T/C: 110 % of control
[17]
  T/C: 105 % of control
[18]
  T/C: 100 % of control

## Cc1cc(N(CCCl)CCCl)ccc1N=Nc1ccccc1C(=O)O
[11]
  T/C: 104 % of control and 105 % of control
[12]
  T/C: 109 % of control and 110 % of control
[13]
  T/C: 115 % of control

## Oc1cc(CN(CCCl)CCCl)c(O)cc1CN(CCCl)CCCl
dose: 0.63 mg/kg/injection, schedule: Q01DX010 (ip), vehicle: saline
  T/C: 104 % of control and 115 % of control
dose: 1.25 mg/kg/injection, schedule: Q01DX010 (ip), vehicle: saline
  T/C: 121 % of control
[11]
  T/C: 115 % of control

## O=C(Nc1ccc(NC2=NCCN2)cc1)c1ccc(C(=O)Nc2ccc(NC3=NCCN3)cc2)cc1
[6]
  T/C: 150 % of control
[7]
  T/C: 240 % of control and 250 % of control
[8]
  T/C: 250 % of control and 285 % of control
[9]
  T/C: 115 % of control

## O=c1cn[nH]c(=O)[nH]1
[4]
  T/C: 90 % of control and 110 % of control
[5]
  T/C: 105 % of control and 110 % of control
dose: 250.0 mg/kg/injection, schedule: Q01DX010 (ip), vehicle: saline
  T/C: 105 % of control and 120 % of control
dose: 500.0 mg/kg/injection, schedule: Q01DX010 (ip), vehicle: saline
  T/C: 110 % of control and 120 % of control

## N#CCSc1ncnc2nc[nH]c12
[19]
  T/C: 91 % of control
[20]
  T/C: 94 % of control and 95 % of control
[21]
  T/C: 91 % of control and 94 % of control
dose: 120.0 mg/kg/injection, schedule: Q01DX010 (ip), vehicle: saline
  T/C: 94 % of control

## CC(=O)Nc1ccc2nc3ccc(NC(C)=O)cc3[n+](-c3ccccc3)c2c1
[22]
  T/C: 122 % of control
dose: 50.0 mg/kg/injection, schedule: Q01DX010 (ip), vehicle: saline
  T/C: 110 % of control
dose: 100.0 mg/kg/injection, schedule: Q01DX010 (ip), vehicle: saline
  T/C: 106 % of control
[10]
  T/C: 100 % of control and 113 % of control

## Nc1nc2n[nH]nc2c(=O)[nH]1
dose: 25.0 mg/kg/injection, schedule: Q01DX010 (ip), vehicle: alkali diluted with saline
  T/C: 110 % of control
dose: 50.0 mg/kg/injection, schedule: Q01DX010 (ip), vehicle: alkali diluted with saline
  T/C: 112 % of control

## C[C@H]1C(=O)O[C@@H]2CCN3CC=C(COC(=O)[C@](C)(O)[C@@]1(C)O)[C@H]23
dose: 3.13 mg/kg/injection, schedule: Q01DX010 (ip), vehicle: saline
  T/C: 100 % of control and 103 % of control
[23]
  T/C: 91 % of control and 111 % of control
[24]
  T/C: 91 % of control
[22]
  T/C: 91 % of control and 96 % of control

## CS(=O)(=O)OCCCl
dose: 18.8 mg/kg/injection, schedule: Q01DX010 (ip), vehicle: saline
  T/C: 94 % of control
dose: 75.0 mg/kg/injection, schedule: Q01DX010 (ip), vehicle: saline
  T/C: 90 % of control and 110 % of control
dose: 150.0 mg/kg/injection, schedule: Q01DX010 (ip), vehicle: saline
  T/C: 118 % of control and 121 % of control

## O=c1[nH]c(=O)n(C2CC(O)C(CO)O2)cc1F (configuration not stated)
[11]
  T/C: 95 % of control
[12]
  T/C: 108 % of control and 111 % of control
[13]
  T/C: 108 % of control and 115 % of control
[14]
  T/C: 116 % of control and 123 % of control
dose: 80.0 mg/kg/injection, schedule: Q01DX010 (ip), vehicle: saline
  T/C: 92 % of control

## O=NN(CCCl)C(=O)NCCCl
[23]
  T/C: 280 % of control and 300 % of control
[24]
  T/C: 180 % of control

## O[C@H](CN1CC1)[C@@H](O)CN1CC1
dose: 62.5 micrograms/kg/injection, schedule: Q01DX010 (ip), vehicle: saline
  T/C: 100 % of control
dose: 250.0 micrograms/kg/injection, schedule: Q01DX010 (ip), vehicle: saline
  T/C: 155 % of control and 181 % of control

## Clc1ncnc2nc[nH]c12
dose: 7.5 mg/kg/injection, schedule: Q01DX010 (ip), vehicle: saline
  T/C: 93 % of control
[19]
  T/C: 93 % of control
[20]
  T/C: 93 % of control
[21]
  T/C: 100 % of control
